Assay results: the supplement of paper PMC6045584

What was measured:
Assay in all cases: area under dose-response curve of surviving fraction (unscaled, Aref=0) (surviving fraction x log10(nM)); higher = more resistant
Settings in all cases: exposure time: 5 days; dose range 0.5-1000 nM
MK-1775 = compound: C=CCn1c(=O)c2cnc(Nc3ccc(N4CCN(C)CC4)cc3)nc2n1-c1cccc(C(C)(C)O)n1 [MK-1775]
Method in brief: (§1)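 Inhibitor was applied to tumour cell lines at eight concentrations (0.5 to 1000 nM) for five days in 384-well plates. Luminescence from CellTiter-Glo, scaled to DMSO-only wells, gave surviving fractions in three screens per line, and these were fitted by 3-parameter logistic regression with the drc R package. The area under the curve is an unscaled activity area. Aref was 0, and dose was on a log10 scale.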

AFIMOXIFENE = compound: CC/C(=C(\c1ccc(O)cc1)c1ccc(OCCN(C)C)cc1)c1ccccc1 [AFIMOXIFENE]
Method in brief: as §1

CABOZANTINIB = compound: COc1cc2nccc(Oc3ccc(NC(=O)C4(C(=O)Nc5ccc(F)cc5)CC4)cc3)c2cc1OC [CABOZANTINIB]
Method in brief: as §1

LENVATINIB = compound: COc1cc2nccc(Oc3ccc(NC(=O)NC4CC4)c(Cl)c3)c2cc1C(N)=O [LENVATINIB]
Method in brief: as §1

[1] = compound: COc1ccc(-c2cc3c(C)nc(N)nc3n([C@H]3CC[C@H](OCCO)CC3)c2=O)cn1
Method in brief: as §1

[2] = compound: C[C@H](CN(C)C)Oc1nc(Nc2cc3cccc(Cl)c3cn2)cnc1C#N
Method in brief: as §1

BLEOMYCIN = compound: Cc1c(N)nc([C@H](CC(N)=O)NC[C@H](N)C(N)=O)nc1C(=O)N[C@H](C(=O)N[C@H](C)[C@@H](O)[C@H](C)C(=O)N[C@H](C(=O)NCCc1nc(-c2nc(C(=O)NCCC[S+](C)C)cs2)cs1)[C@@H](C)O)[C@@H](OC1OC(CO)C(O)C(O)C1OC1OC(CO)C(O)C(OC(N)=O)C1O)c1cnc[nH]1 [BLEOMYCIN]
Method in brief: as §1

IMATINIB = compound: Cc1ccc(NC(=O)c2ccc(CN3CCN(C)CC3)cc2)cc1Nc1nccc(-c2cccnc2)n1 [IMATINIB]
Method in brief: as §1

NILOTINIB = compound: Cc1cn(-c2cc(NC(=O)c3ccc(C)c(Nc4nccc(-c5cccnc5)n4)c3)cc(C(F)(F)F)c2)cn1 [NILOTINIB]
Method in brief: as §1

BEZ-235 = compound: Cn1c(=O)n(-c2ccc(C(C)(C)C#N)cc2)c2c3cc(-c4cnc5ccccc5c4)ccc3ncc21 [BEZ-235]
Method in brief: as §1

BMN-673 = compound: Cn1ncnc1[C@H]1c2n[nH]c(=O)c3cc(F)cc(c23)N[C@@H]1c1ccc(F)cc1 [BMN-673]
Method in brief: as §1

VORINOSTAT = compound: O=C(CCCCCCC(=O)Nc1ccccc1)NO [VORINOSTAT]
Method in brief: as §1

[3] = compound: CCc1cc(Nc2nccc(-c3c(-c4ccc(OC)c(C(=O)Nc5c(F)cccc5F)c4)nc4ccccn34)n2)c(OC)cc1N1CCC(N2CCN(S(C)(=O)=O)CC2)CC1
Method in brief: as §1

[4] = compound: C[C@@H]1CN(CC(=O)Nc2ccc3c(c2)Cc2cccc(-c4cc(=O)cc(N5CCOCC5)o4)c2S3)C[C@H](C)O1
Method in brief: as §1

Test System | area under dose-response curve (MK-1775) | area under dose-response curve (AFIMOXIFENE) | area under dose-response curve (CABOZANTINIB) | area under dose-response curve (LENVATINIB) | area under dose-response curve [1] | area under dose-response curve [2] | area under dose-response curve (BLEOMYCIN) | area under dose-response curve (IMATINIB) | area under dose-response curve (NILOTINIB) | area under dose-response curve (BEZ-235) | area under dose-response curve (BMN-673) | area under dose-response curve (VORINOSTAT) | area under dose-response curve [3] | area under dose-response curve [4]
S68 BREAST | 2.17 | 3.23 | 3.55 | 3.45 | 1.84 | 2.49 | 2.99 | 3.6 | 2.73 | 2.14 | 1.74 | 3.12 |  | 
CADOES1 SOFT TISSUE | 2.76 |  | 3.02 | 2.86 | 2.15 | 2.48 | 2.17 | 3.08 |  | 2.12 | 1.72 | 2.16 | 3.13 | 3.25
HCC1806 BREAST | 2.16 |  | 3.61 | 3.49 | 2.72 | 2.4 | 1.54 | 3.65 | 2.94 | 2.63 | 1.26 | 3 | 3.26 | 3.06
MDAMB468 BREAST | 2.87 | 3.58 | 3.58 | 3.61 | 2.59 | 3.03 | 3.15 | 3.53 | 3.07 | 2.83 | 2.09 |  | 3.5 | 3.17
KPD BONE | 2.7 | 3.52 | 3.33 |  | 1.97 | 2.98 | 2.48 | 3.49 | 3.25 | 2.12 | 1.92 |  | 3.24 | 3.21
A549 LUNG | 3.15 | 3.56 | 3.3 | 3.51 | 2.8 | 3.25 | 3.18 | 3.65 | 3.59 | 2.55 | 3.58 |  | 3.29 | 3.58
SUM44 BREAST | 2.54 |  | 4.12 | 3.41 | 2.6 | 2.65 | 3.07 |  | 3.21 | 2.29 | 3.29 | 2.88 |  | 3.07
SUM149 BREAST | 2.21 | 3.16 | 3.18 |  | 2.28 | 2.65 | 1.44 | 3.23 | 2.88 | 2.39 | 0.994 |  | 3.6 | 3.07
VCAP PROSTATE | 2.4 | 3.49 | 3.28 |  | 2.35 | 3.1 | 3.21 | 3.67 | 3.26 | 2.82 | 2.63 | 2.98 | 3.37 | 3.6
SNU475 LIVER | 2.93 |  | 3.24 |  | 2.13 |  | 2.51 | 3.51 | 3.21 | 2.04 | 2.83 | 3.12 | 3.12 | 3.13
DU4475 BREAST | 2.29 | 2.84 | 2.93 |  | 1.53 | 3.04 | 2.19 | 3.54 | 3.45 | 1.94 | 1.63 |  | 3.05 | 3.52
SG31 HEADNECK | 2.93 | 3.88 | 3.45 | 3.43 | 2.18 |  | 2.62 |  | 3.85 | 2.43 |  |  | 3.44 | 3.26
SG28 HEADNECK | 2.63 |  |  | 3.48 | 2.44 |  | 2.97 |  |  | 2.58 |  |  | 3.59 | 
SCC003 HEADNECK | 2.83 |  | 3.21 | 3.75 | 2.7 | 3.46 | 2.6 | 3.7 | 3.21 | 2.63 | 2.8 |  | 3.47 | 3.42
SG43 HEADNECK |  |  | 2.63 | 3.03 | 1.92 | 2.79 | 2.58 | 3.35 | 4.68 | 2.72 | 2.45 | 3.27 | 3.51 | 
RDES SOFT TISSUE | 2.98 | 3.94 | 3.82 | 3.93 | 2.91 | 4.28 | 2.68 |  |  |  | 2.03 | 3.64 | 3.71 | 
C33A CERVIX | 2.33 | 3.76 | 2.65 | 3.26 | 2.1 | 3 | 2.02 | 3.47 | 3.63 | 2.24 | 1.82 |  | 2.94 | 3.44
ZR751 BREAST |  | 3.68 |  |  | 1.71 | 2.92 | 3.06 |  | 3.01 | 2.35 | 3.29 | 4.01 | 3.02 | 3.26
BT20 BREAST | 2.77 | 4.62 | 3.73 | 3.71 | 2.52 | 4.01 | 2.25 | 4.15 | 3.28 | 2.35 | 2.9 |  |  | 
SAOS2 BONE | 2.49 | 3.87 |  | 3.65 | 2.29 |  | 2.59 | 3.89 | 3.18 | 2.74 | 2.32 |  | 3.69 | 3.16
MDAMB157 BREAST | 2.07 |  | 3.09 | 3.03 | 2.35 | 2.75 | 2.5 |  | 3.49 | 2.72 | 2.09 | 3.15 | 3.26 | 3.25
22RV1 PROSTATE | 2.97 | 3.57 | 3.33 | 3.44 | 1.98 |  | 2.95 | 3.51 | 3.59 | 2.09 | 2.4 | 3.27 |  | 3.54

Test System | area under dose-response curve (MK-1775) | area under dose-response curve (AFIMOXIFENE) | area under dose-response curve (CABOZANTINIB) | area under dose-response curve (LENVATINIB) | area under dose-response curve [1] | area under dose-response curve [2] | area under dose-response curve (BLEOMYCIN) | area under dose-response curve (IMATINIB) | area under dose-response curve (NILOTINIB) | area under dose-response curve (BEZ-235) | area under dose-response curve (BMN-673) | area under dose-response curve (VORINOSTAT) | area under dose-response curve [3] | area under dose-response curve [4]
HCC1954 BREAST | 2.32 |  | 3.42 | 3.2 | 2.09 | 3.14 | 1.38 | 3.5 | 2.74 | 2.11 |  | 3.06 | 3.23 | 2.82
HCC202 BREAST | 2.67 |  |  |  | 2.16 |  |  |  |  | 2.62 |  | 2.75 | 4 | 3.04
SCC90 HEADNECK | 2.22 |  | 3.14 | 3.91 | 2.3 | 2.62 | 3.23 | 3.71 |  | 2.68 | 3.31 |  | 3.49 | 
NOS1 BONE | 1.79 | 3.91 | 2.96 | 2.79 | 2.25 | 2.6 | 2.66 |  | 2.94 | 2.32 | 2.26 |  | 3.75 | 
BT549 BREAST | 2.27 | 3.21 | 3.6 | 3.7 | 2.15 | 2.68 | 1.6 | 3.76 | 3.42 | 2.29 | 2.53 |  | 3.58 | 2.89
93VU HEADNECK | 2.31 | 4.12 | 3.14 | 3.67 | 2.13 | 3.44 | 2.25 | 3.93 |  | 2.65 |  | 3.25 | 3.51 | 
NCIH441 LUNG | 2.78 | 3.62 | 3.29 | 3.46 | 2.77 |  | 2.86 | 3.69 |  | 3.03 | 2.71 | 3.23 | 3.27 | 3.5
SJSA1 BONE | 2.86 |  | 5.44 | 3.51 | 2.46 | 5.38 | 2.25 |  | 5.57 | 2.51 | 4.84 | 2.78 | 3.48 | 3.26
CME SYNOVIAL |  | 4.56 | 3.92 |  | 2.55 | 4.25 | 1.51 |  |  |  | 0.962 |  |  | 
143B BONE | 2.71 |  |  | 3.51 | 2.78 |  | 3.15 |  |  | 2.55 |  | 3.26 | 3.38 | 3.28
CAL72 BONE | 2.65 | 3.6 | 3.56 |  | 2.62 | 2.93 | 3.13 | 3.71 | 3.29 | 2.3 | 3.14 | 3.52 | 3.56 | 3.2
SUM149.B1*.S BREAST | 2.74 | 3.8 | 3.39 | 3.96 | 2.71 |  | 2.89 | 3.85 | 3.68 | 3.03 | 2.65 |  | 3.62 | 
YAMATO SYNOVIAL |  | 4.25 | 2.65 |  | 2.19 |  | 3.25 |  |  | 2.84 | 2.65 |  | 4.39 | 
SG27 HEADNECK |  | 3.58 |  | 3.51 | 2.65 | 3.57 | 3.29 | 3.66 | 3.63 | 3.01 |  |  | 3.63 | 3.35
MG63 BONE | 2.87 |  | 3.04 | 2.98 | 2.06 | 3.49 | 2.35 | 3.51 | 3.81 | 2.27 | 2.31 | 3.43 | 3.27 | 3.46
SCC36 HEADNECK | 2.66 |  | 3.43 | 3.67 | 2.62 | 3 | 2.48 | 3.55 | 3 | 2.98 | 2.52 | 3.13 | 3.23 | 3.05
MDAMB453 BREAST | 2.78 |  | 3.43 | 3.12 | 2.17 | 3.06 |  | 3.62 | 3.15 | 2.25 | 2.58 | 3.13 | 3.61 | 3.16
HCC1395 BREAST | 3.14 | 3.9 | 3.98 | 3.23 | 2.91 |  | 2.73 | 4.07 | 3.22 | 3.18 | 2.84 | 3.8 | 3 | 3.09
HOSMNG BONE | 2.85 | 3.26 | 2.68 | 3.46 | 2.74 | 3.22 |  | 3.46 | 3.21 | 2.74 | 3.19 |  | 3.35 | 3.27
SG32 HEADNECK | 2.43 |  | 3.26 | 3.96 | 2.95 |  | 2.56 | 3.6 | 3.05 | 2.45 | 3.1 | 3.07 | 3.97 | 3.15
MFM223 BREAST | 2.48 | 3.79 | 3.65 | 2.7 | 2.27 |  | 2.64 | 3.93 | 3.16 | 2.45 | 3 | 3.21 | 3.77 | 3.36
